Assay results as given in ChEMBL document CHEMBL5614409, “Discovery of potent HIV-1 NNRTIs by CuAAC click-chemistry-based miniaturized synthesis, rapid screening and structure optimization” (Eur J Med Chem, 2024).
Values after ≈ are worked out from the molar mass of the structure shown.

What was measured:
[1] = Cytotoxicity against human MT4 cells assessed as reduction in cell viability incubated for 5 days by MTT method; assay type: toxicity, cell-based; details: time 5 day
[2] = biological target: Human immunodeficiency virus type 1 reverse transcriptase (Human immunodeficiency virus 1) (UniProt Q72547); assay: Inhibition of HIV-1 reverse transcriptase incubated for 2 hrs in presence of template and viral nucleotides by ELISA relative to control; parameters: concentration or dose not given beside the values; details: concentration not given here
[3] = biological target: Human immunodeficiency virus type 1 reverse transcriptase (Human immunodeficiency virus 1, UniProt Q72547); assay: Inhibition of HIV-1 reverse transcriptase assessed as reduction in biotin-dUTP incorporation incubated for 2 hrs in presence of template and viral nucleotides by ELISA
[4] = system: Human immunodeficiency virus 1; assay: Antiviral activity against HIV1 IIIB infected in MT4 cells assessed as reduction in virus induced cytopathic effect incubated for 5 days by MTT method; assay type: functional, organism-based; details: Human immunodeficiency virus 1, IIIB, MT4, 120 h
[5] = Selectivity index, ratio of CC50 for human MT4 cells to EC50 for antiviral activity against HIV1 IIIB infected in MT4 cells; assay type: toxicity, cell-based; details: read-out: Ratio CC50/EC50
[6] = Aqueous solubility of compound at pH 7.4 incubated for 24 hrs under shaking condition by HPLC method; assay type: physicochemical; details: buffer
[7] = system: Human immunodeficiency virus 1; assay: Antiviral activity against HIV1 IIIB harboring L100I mutant infected in MT4 cells assessed as reduction in virus induced cytopathic effect incubated for 5 days by MTT method; assay type: functional, organism-based; details: Human immunodeficiency virus 1, IIIB, MT4, 120 h
[8] = system: Human immunodeficiency virus 1; assay: Antiviral activity against HIV1 IIIB harboring RES056 mutant infected in MT4 cells assessed as reduction in virus induced cytopathic effect incubated for 5 days by MTT method; assay type: functional, organism-based; details: Human immunodeficiency virus 1, IIIB, MT4, 120 h
[9] = system: Human immunodeficiency virus 1; assay: Antiviral activity against HIV1 IIIB harboring Y181C mutant infected in MT4 cells assessed as reduction in virus induced cytopathic effect incubated for 5 days by MTT method; assay type: functional, organism-based; details: Human immunodeficiency virus 1, IIIB, MT4, 120 h
[10] = system: Human immunodeficiency virus 1; assay: Antiviral activity against HIV1 IIIB harboring E138K mutant infected in MT4 cells assessed as reduction in virus induced cytopathic effect incubated for 5 days by MTT method; assay type: functional, organism-based; details: Human immunodeficiency virus 1, IIIB, MT4, 120 h
[11] = system: Human immunodeficiency virus 1; assay: Antiviral activity against HIV1 IIIB harboring K103 N mutant infected in MT4 cells assessed as reduction in virus induced cytopathic effect incubated for 5 days by MTT method; assay type: functional, organism-based; details: Human immunodeficiency virus 1, IIIB, MT4, 120 h
[12] = Aqueous solubility of compound at pH 7 incubated for 24 hrs under shaking condition by HPLC method; assay type: physicochemical; details: buffer
[13] = system: Human immunodeficiency virus 1; assay: Antiviral activity against HIV1 IIIB harboring Y188L mutant infected in MT4 cells assessed as fold increase in reduction of virus induced cytopathic effect incubated for 5 days by MTT method relative to A6N36; assay type: functional; details: time 5 day
[14] = system: Human immunodeficiency virus 1; assay: Antiviral activity against HIV1 IIIB harboring Y188L mutant infected in MT4 cells assessed as reduction in virus induced cytopathic effect incubated for 5 days by MTT method; assay type: functional, organism-based; details: Human immunodeficiency virus 1, IIIB, MT4, 120 h
[15] = Aqueous solubility of compound at pH 2 incubated for 24 hrs under shaking condition by HPLC method; assay type: physicochemical; details: buffer
[16] = system: Human immunodeficiency virus 1; assay: Antiviral activity against HIV1 IIIB harboring F227L/V106A double mutant infected in MT4 cells assessed as reduction in virus induced cytopathic effect incubated for 5 days by MTT method; assay type: functional, organism-based; details: Human immunodeficiency virus 1, IIIB, MT4, 120 h
[17] = Aqueous solubility of compound at pH 7; details: buffer
[18] = Aqueous solubility of compound at pH 7.4; details: buffer
[19] = system: Human immunodeficiency virus 1; assay: Antiviral activity against HIV1 IIIB harboring F227L/V106A double mutant infected in MT4 cells assessed as fold increase in reduction of virus induced cytopathic effect incubated for 5 days by MTT method relative to A6N36; assay type: functional; details: time 5 day
[20] = system: Human immunodeficiency virus 1; assay: Antiviral activity against HIV1 IIIB harboring RES056 mutant infected in MT4 cells assessed as fold increase in reduction of virus induced cytopathic effect incubated for 5 days by MTT method relative to A6N36; assay type: functional; details: time 5 day

solubility [17] [µg/mL]	solubility [18] [µg/mL]	Compound	CC50 at 120 h [1] [nM]	inhibition [2] [%]	IC50 [3] [nM]	EC50 [4] [nM]	selectivity ratio [5]	solubility thermodynamic at 24 h [6] [µg/mL]	EC50 [7] [nM]	EC50 [8] [nM]	EC50 [9] [nM]	EC50 [10] [nM]	EC50 [11] [nM]	solubility thermodynamic at 24 h [12] [µg/mL]	fold change (FC) [13]	EC50 [14] [nM]	solubility thermodynamic at 24 h [15] [µg/mL]	EC50 [16] [nM]	fold change (FC) [19]	fold change (FC) [20]
		COC(=O)CCCn1cc(CN2CCC(Nc3nccc(Oc4c(C)cc(C#N)cc4C)n3)CC2)nn1	21300	90.7	56	10	2060													
		Cc1cc(/C=C/C#N)cc(C)c1Oc1nc(NC2CCN(Cc3cn(CC(=O)NC4CCOCC4)nn3)CC2)nc2sccc12	16000		220	3	4980	23.1 (≈ 36.8 µM)	5	62	15	18	5	22.5 (≈ 35.8 µM)	3	29	1610 (≈ 2570 µM)	47		
< 1	< 1	Cc1cc(/C=C/C#N)cc(C)c1Nc1ccnc(Nc2ccc(C#N)cc2)n1 [RILPIVIRINE]																		
		CCNC(=O)Cn1cc(CN2CCC(Nc3nc(Oc4c(C)cc(/C=C/C#N)cc4C)c4ccsc4n3)CC2)nn1	19000		210	4	5010	22.6 (≈ 39.5 µM)	7	55	12	17		25.1 (≈ 43.9 µM)	3	29	659 (≈ 1150 µM)	36		
		Cc1cc(/C=C/C#N)cc(C)c1Oc1nc(NC2CCN(Cc3cn(CC(=O)NC4CC4)nn3)CC2)nc2sccc12	16900		214	5	3520		6	84	16	22			3	38		156		
		Cc1cc(C#N)cc(C)c1Oc1ccnc(NC2CCN(Cc3cn(Cc4ccc(C(N)=O)cc4)nn3)CC2)n1	7690	94.1	55	2			50	> 7690	11	14	7			97		1040		
		Cc1cc(/C=C/C#N)cc(C)c1Oc1nc(NC2CCN(Cc3cn(CC(N)=O)nn3)CC2)nc2sccc12	62500		118	4	14500	20.1 (≈ 37 µM)	6	89	17	14	5	22.5 (≈ 41.4 µM)	3	39	228 (≈ 419 µM)	51		
		Cc1cc(/C=C/C#N)cc(C)c1Oc1ccnc(NC2CCN(Cc3cn(CC(=O)NC4CC4)nn3)CC2)n1	21000	92.4	40	2	14000	85 (≈ 161 µM)	9	85	7	7		198 (≈ 375 µM)		91	3190 (≈ 6040 µM)	66		
		CNC(=O)Cn1cc(CN2CCC(Nc3nc(Oc4c(C)cc(/C=C/C#N)cc4C)c4ccsc4n3)CC2)nn1	18700		134	5	3990	20.1 (≈ 36 µM)	4	58	8	9	3	23.6 (≈ 42.3 µM)	3	30	733 (≈ 1310 µM)	28	2	2
		Cc1cc(/C=C/C#N)cc(C)c1Oc1ccnc(NC2CCN(Cc3cn(CC(=O)N4CCOCC4)nn3)CC2)n1	30500	89.4	59	2	13300		61	1170	17	10	3			1260		664		
		Cc1cc(/C=C/C#N)cc(C)c1Oc1ccnc(NC2CCN(Cc3cn(Cc4ccc(B(O)O)cc4)nn3)CC2)n1	4620	92.2	96	6	825		9	133	11	19	4			78		99		
		COC(=O)Cn1cc(CN2CCC(Nc3nccc(Oc4c(C)cc(/C=C/C#N)cc4C)n3)CC2)nn1	26200	91.7	52	36	732													
		CCOC(=O)Cn1cc(CN2CCC(Nc3nccc(Oc4c(C)cc(/C=C/C#N)cc4C)n3)CC2)nn1	18800	90.9	54	11	1740													
		COC(=O)CCCn1cc(CN2CCC(Nc3nccc(Oc4c(C)cc(/C=C/C#N)cc4C)n3)CC2)nn1	16100	90.7	73	6	2680		28	2360	28	36	8			1090		830		
		Cc1cc(C#N)cc(C)c1Oc1ccnc(NC2CCN(Cc3cn(CC(=O)NC4CC4)nn3)CC2)n1	31300	93.4	62	3	12500		150	2630	30	28	19			399		3270		
